The values below come from patent publication US10030016B2 (Sunesis Pharmaceuticals, Inc., priority 2009, dated 2018).

For assay [1], the target named is PDK1 (Homo sapiens (Human), UniProt O15530). As to the kind of experiment: PDK1 kinase assay (coupled PDK1/AKT/FAM-crosstide assay, IMAP fluorescence polarization). Type of assay: biochemical. A digest of the protocol:
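GST-tagged PDK1 (aa 51-359, 0.75 nM) was coupled to unphosphorylated GST-AKT2 140-467-PIFtide (10 nM) and 100 nM FAM-crosstide at 40 μM ATP, in Tris pH 7.2 buffer, for 30 min at 25 °C. Crosstide phosphorylation was read by IMAP fluorescence polarization (ΔmP) and fitted with a 4-parameter curve.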
(In fluorescence polarisation assays a small probe gives low polarisation when free and higher when bound to something large.)

In assay [2] the test system is phospho-akt (Thr308) in PC-3 cells. Nature of the assay: Inhibition of phospho-akt (Thr308) in PC-3 cells, MSD phospho-akt 308 ELISA kit. Format: cell-based. The conditions noted are these: 2 hours, no serum, read-out: EC50. A digest of the protocol: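 Read-out is MSD electrochemiluminescence of Akt phosphorylated at Thr308 in lysates of PC-3 cells treated 2 h with compound in serum-free medium. Wortmannin at 5 μM defined the low control and DMSO the high control.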
On the technique in general: In an ELISA, binding on a coated surface is turned into a signal by an enzyme label.

[3] abbreviates: Homo sapiens, inhibition of P308 Akt in PC-3 cells using MSD.
The mark [4] stands for this setting: inhibition of phospo-PDK1 in vitro.
Where [5] appears, read: Homo sapiens, inhibition of P308 Akt in PC-3 cells, MSD.

Molecules are shown by their SMILES. Where a name gives a salt, the structure may show the parent alone. Read-outs that look alike come from different tables or passages of the source.

One may read the IC50 as the concentration at which inhibition is half-maximal. A high value points to weaker potency in that assay. What is called EC50 is the concentration at which the effect is half-maximal.

Sequence of PDK1 (O15530 51-359): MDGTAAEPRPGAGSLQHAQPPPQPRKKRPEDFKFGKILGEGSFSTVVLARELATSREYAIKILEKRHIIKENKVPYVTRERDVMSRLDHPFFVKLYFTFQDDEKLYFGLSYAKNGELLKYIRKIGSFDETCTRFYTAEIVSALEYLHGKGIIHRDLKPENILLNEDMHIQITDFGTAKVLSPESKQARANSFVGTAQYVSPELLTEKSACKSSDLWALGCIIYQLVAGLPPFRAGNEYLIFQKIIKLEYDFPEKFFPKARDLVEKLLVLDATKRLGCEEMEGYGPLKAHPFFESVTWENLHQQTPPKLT

In assay [1] (inhibition of PDK1 in vitro), `Nc1ncc(-c2ccc(CNc3ncc(C(F)(F)F)cc3C(=O)Nc3ccc(F)cc3)cc2)nc1CCC1CCNC1` (stereo not shown) [Example 76, 2-{4-[5-Amino-6-(2-pyrrolidin-3-yl-ethyl)-pyrazin-2-yl]-benzylamino}-N-(4-fluoro-phenyl)-5-trifluoromethyl-nicotinamide] came in with a 50% inhibitory concentration (IC50) of less than 0.1 µM. In addition, in assay [2] (setting [3]), the half-maximal effective concentration (EC50) was less than 1 µM.

On to `C[C@H](NC(=O)c1cccnc1NCc1ccc(-c2cn(C)c(=O)c3ccccc23)s1)c1ccc(F)cc1` [Example 2.10, (S)-N-(1-(4-fluorophenyl)ethyl)-2-(((5-(2-methyl-1-oxo-1,2-di-hydroisoquinolin-4-yl)thiophen-2-yl)methyl)amino)nicotinamide], for which, in assay [1] (setting [4]), the half-inhibitory concentration (IC50) was more than 5 µM. In addition, the EC50 in assay [2] (setting [5]) was more than 10 µM.

For `Nc1ncnc2ccc(-c3ccc(CNc4nccnc4C(=O)NCc4ccc(F)cc4)s3)cc12` [Example 3.68, 3-({[5-(4-aminoquinazolin-6-yl)thiophen-2-yl]methyl}amino)-N-(4-fluorobenzyl) pyrazine-2-carboxamide (TFA salt)], the IC50 in assay [1] (setting [4]) is less than 0.1 µM. Besides, the EC50 in assay [2] (setting [5]) lay within 1 to 10 µM.

As for `Nc1n[nH]c2ncc(-c3ccc(CNc4ncc(C(F)(F)F)cc4C(=O)NCc4ccc(F)c(F)c4)cc3)cc12` [Example 132, 2-(4-(3-amino-1H-pyrazolo [3,4-b]pyridin-5-yl)benzylamino)-N-(3,4-difluorobenzyl)-5-(trifluoromethyl) nicotinamide], in assay [1] (inhibition of PDK1 in vitro), the IC50 was less than 0.1 µM. For the same compound, the concentration giving a half-maximal response (EC50) in assay [2] (setting [3]) is less than 1 µM.

In turn, `NCCNc1nc(-c2ccc(CNc3ncc(C(F)(F)F)cc3C(=O)Nc3ccc(F)cc3)cc2)cnc1N` [Example 194, 2-{4-[5-Amino-6-(2-amino-ethylamino)-pyrazin-2-yl]-benzylamino}-N-(4-fluoro-phenyl)-5-trifluoromethyl-nicotinamide] gave a concentration for half-maximal inhibition (IC50) in assay [1] (inhibition of PDK1 in vitro) of less than 0.1 µM. For the same compound, the concentration giving a half-maximal response (EC50) in assay [2] (setting [3]) was less than 1 µM.

The compound `C=C(C)c1cnc(NCc2ccc(-c3ccc4ncnc(N)c4c3)s2)c(C(=O)NCc2ccc(F)c(F)c2)n1` [Ex. 10.5, 3-({[5-(4-aminoquinazolin-6-yl)thiophen-2-yl]methyl}amino)-N-(3,4-difluorobenzyl)-6-(prop-1-en-2-yl)pyrazine-2-carboxamide] registered an IC50 in assay [1] (setting [4]) of less than 0.1 µM. Besides, the 50% effective concentration (EC50) in assay [2] (setting [5]) was in the range of 1 to 10 µM.

Turning to `CC(C)Oc1cc(CNc2ncccc2C(=O)NCc2ccc(F)c(F)c2)cc(-c2ccc3ncnc(N)c3c2)c1` [Example 5.6], the IC50 in assay [1] (setting [4]) was less than 0.1 µM. The EC50 in assay [2] (setting [5]) is 1 to 10 µM.

`Cc1ccc(Nc2ncccc2C(=O)NCc2ccc(F)c(F)c2)cc1-c1ccc2c(c1)CNC2=O` [Example 17.2]: the IC50 in assay [1] (setting [4]) is more than 5 µM. In addition, the half-maximal effective concentration (EC50) in assay [2] (setting [5]) is more than 10 µM.

`C[C@H](NC(=O)c1nc(C#N)cnc1NCc1ccc(-c2cn(CCN)c3ncnc(N)c23)cc1)c1ccc(F)c(F)c1` [Example 319, (S)-3-(4-(4-amino-7-(2-aminoethyl)-7H-pyrrolo[2,3-d]pyrimidin-5-yl)benzylamino)-6-cyano-N-(1-(3,4-difluoro-phenyl)ethyl)pyrazine-2-carboxamide] registered an IC50 in assay [1] (inhibition of PDK1 in vitro) of less than 0.1 µM. Besides, the EC50 in assay [2] (setting [3]) was less than 1 µM.

With `CC(C)Oc1cc(CNc2ncccc2C(=O)NC(C)(C)C)cc(-c2c[nH]c3ncc(C(=O)NC4CC4)cc23)c1` [Example 4.1.15, 3-[3-({[(3-tert-butylcarbamoyl)pyridin-2-yl]amino}methyl)-5-(propan-2-yloxy)phenyl]-N-cyclopropyl-1H-pyrrolo[2,3-b] pyridine-5-carboxamide], the IC50 in assay [1] (setting [4]) was more than 5 µM. Besides, the EC50 in assay [2] (setting [5]) lay within 1 to 10 µM.

In turn, `C[C@H](NC(=O)c1cccnc1NCCOc1ccc2cc[nH]c2c1)c1ccc(F)c(F)c1` [Example 19.1, (S)-2-(2-(1H-indol-6-yloxy)ethylamino)-N-(1-(3,4-difluorophenyl)ethyl)nicotinamide] gave an IC50 in assay [1] (setting [4]) of more than 5 µM. Moreover, the 50% effective concentration (EC50) in assay [2] (setting [5]) was more than 10 µM.

Take `C[C@H](NC(=O)c1cccnc1NCc1ccc(-c2ccc3ncnc(N)c3c2)s1)c1cccnc1` [Example 3.60, (S)-2-(((5-(4-aminoquinazolin-6-yl)thiophen-2-yl)methyl)amino)-N-(1-(pyridin-3-yl)ethyl) nicotinamide (TFA salt)]: the IC50 in assay [1] (setting [4]) lay in the range of 0.1 to 1 µM. For the same compound, the concentration for a half-maximal effect (EC50) in assay [2] (setting [5]) was in the range of 1 to 10 µM.

`C[C@H](NC(=O)c1cc(I)cnc1NCc1ccc(-c2ccc3ncnc(N)c3c2)s1)c1ccc(F)cc1` [Example 7.21.2, 2-({[5-(4-aminoquinazolin-6-yl)thiophen-2-yl]methyl}amino)-N-[(1S)-1-(4-fluorophenyl)ethyl]-5-iodopyridine-3-carboxamide] showed a concentration for half-maximal inhibition (IC50) in assay [1] (setting [4]) of 0.1 to 1 µM. Further, the EC50 in assay [2] (setting [5]) is less than 1 µM.

The compound `C[C@H](NC(=O)c1nc(C#N)cnc1NCc1ccc(-c2cnc(N)c(O[C@H]3CCC[C@@H]3N)n2)cc1)c1ccc(F)c(F)c1` [Example 169, 3-{4-[5-Amino-6-((1S,2S)-2-amino-cyclopentyloxy)-pyrazin-2-yl]-benzylamino}-6-cyano-pyrazine-2-carboxylic acid [(S)-1-(3,4-difluoro-phenyl)-ethyl]-amide] showed an IC50 in assay [1] (inhibition of PDK1 in vitro) of less than 0.1 µM. Also, the EC50 in assay [2] (setting [3]) was less than 1 µM.

In the case of `CC(C)Oc1cc(CNc2ncccc2C(=O)NCc2ccc(F)c(F)c2)cc(-c2c[nH]c3ncncc23)c1` [Example 5.8, N-(3,4-difluorobenzyl)-2-{[3-(propan-2-yloxy)-5-(7H-pyrrolo[2,3-d]pyrimidin-5-yl)benzyl]amino}pyridine-3-carboxamide], in assay [1] (setting [4]), the IC50 was less than 0.1 µM. Besides, the EC50 in assay [2] (setting [5]) lay within 1 to 10 µM.

On to `NCCCc1nc(-c2ccc(CNc3ncc(C(F)(F)F)cc3C(=O)Nc3ccc(F)cc3)cc2)cnc1N` [Example 73, 2-{4-[5-Amino-6-(3-amino-propyl)-pyrazin-2-yl]-benzyl-amino}-N-(4-fluoro-phenyl)-5-trifluoromethyl-nicotinamide], for which the IC50 in assay [1] (inhibition of PDK1 in vitro) is less than 0.1 µM. Also, the half-maximal effective concentration (EC50) in assay [2] (setting [3]) is less than 1 µM.

With `CN(C)S(=O)(=O)c1cnc(NCc2ccc(-c3ccc4ncnc(N)c4c3)s2)c(C(=O)NCc2ccc(F)c(F)c2)c1` [Example 8.7.5], the half-maximal inhibitory concentration (IC50) in assay [1] (setting [4]) was less than 0.1 µM. For the same compound, the EC50 in assay [2] (setting [5]) is less than 1 µM.

`O=C1Nc2cc(OCCNc3ncccc3C(=O)NCc3ccc(F)cc3)ccc2/C1=C/c1cnc[nH]1` [Example 23, (Z)-2-(2-(3-((1H-imidazol-5-yl)methylene)-2-oxoindolin-6-yloxy)ethylamino)-N-(4-fluorobenzyl)nicotinamide] gave an IC50 in assay [1] (setting [4]) of less than 0.1 µM. In assay [2] (setting [5]), the EC50 was less than 1 µM.

As for `C[C@H](NC(=O)c1nc(C#N)cnc1NCc1ccc(-c2cnc(N)c(CCC3CCCNC3)n2)cc1)c1ccc(F)c(F)c1` (stereo partly shown) [Example 81], the IC50 in assay [1] is less than 0.1 µM. Besides, in assay [2] (setting [3]), the half-maximal effective concentration (EC50) fell in the range of 1 to 10 µM.

In assay [1] (setting [4]), `C[C@H](NC(=O)c1cc(S(=O)(=O)N(C)C)cnc1NCc1ccc(-c2ccc3ncnc(N)c3c2)s1)c1ccc(F)c(F)c1` [Example 8.7.6, 2-({[5-(4-aminoquinazolin-6-yl)thiophen-2-yl]methyl}amino)-N-[(1S)-1-(3,4-difluorophenyl)ethyl]-5-(dimethylsulfamoyl) pyridine-3-carboxamide] yielded an IC50 of less than 0.1 µM. In addition, the EC50 in assay [2] (inhibition of P308 Akt in PC-3 cells, MSD) was less than 1 µM.

In assay [1] (setting [4]), `CNS(=O)(=O)c1cnc(NCc2ccc(-c3ccc4ncnc(N)c4c3)s2)c(C(=O)NCc2ccc(F)c(F)c2)c1` [Ex. 8.7.1, 2-(((5-(4-aminoquinazolin-6-yl)thiophen-2-yl)methyl)amino)-N-(3,4-difluorobenzyl)-5-(N-methylsulfamoyl)nicotinamide] returned an IC50 of 0.1 to 1 µM. Also, the concentration for a half-maximal effect (EC50) in assay [2] (setting [5]) was less than 1 µM.

As for `Cc1ccc(CNC(=O)c2cccnc2NCc2cc(OC(C)C)cc(-c3c[nH]c4ncc(C(=O)NC5CC5)cc34)c2)o1` [Example 4.1.14, N-cyclopropyl-3-[3-{[(3-{[(5-methylfuran-2-yl)methyl]carbamoyl}pyridin-2-yl)amino]methyl}-5-(propan-2-yloxy)phenyl]-1H-pyrrolo[2,3-b] pyridine-5-carboxamide], the IC50 in assay [1] (setting [4]) is less than 0.1 µM. In assay [2] (setting [5]), the EC50 lay within 1 to 10 µM.

As for `Nc1ncc(-c2ccc(CNc3ncc(C(F)(F)F)cc3C(=O)Nc3ccc(F)cc3)cc2)nc1CC[C@@H]1CCCN1` [Example 75, 2-{4-[5-Amino-6-((S)-2-pyrrolidin-2-yl-ethyl)-pyrazin-2-yl]-benzylamino}-N-(4-fluoro-phenyl)-5-trifluoromethyl-nicotinamide], the 50% inhibitory concentration (IC50) in assay [1] (inhibition of PDK1 in vitro) was less than 0.1 µM. The EC50 in assay [2] (setting [3]) is 1 to 10 µM.

In assay [1] (setting [4]), `C[C@H](NC(=O)c1cccnc1NCc1ccc(-c2cc3c(N)ncnc3cn2)s1)c1ccc(F)cc1` [Example 2.13.1, (S)-2-(((5-(4-aminopyrido[3,4-d]pyrimidin-6-yl)thiophen-2-yl)methyl)amino)-N-(1-(4-fluoro-phenyl)ethyl)nicotinamide] came in with a 50% inhibitory concentration (IC50) of 0.1 to 1 µM. Besides, the EC50 in assay [2] (Homo sapiens, PC-3, 2 h, inhibition of P308 Akt in PC-3 cells, MSD) was 1 to 10 µM.

Compound `C[C@H](NC(=O)c1nc(C#N)cnc1NCC1CCC(c2cn(C)c3ncnc(N)c23)CC1)c1ccc(F)c(F)c1` (stereo partly shown) [Example 339] registered an IC50 in assay [1] (inhibition of PDK1 in vitro) of 0.1 to 1 µM. The EC50 in assay [2] (Homo sapiens, PC-3, 2 h, inhibition of P308 Akt in PC-3 cells using MSD) is more than 10 µM.

In assay [1] (setting [4]), `Nc1ncnc2ccc(-c3ccc(CNc4nccc5c4C(=O)N(Cc4ccc(F)c(F)c4)CC5)s3)cc12` [Ex. 7.18, 8-({[5-(4-aminoquinazolin-6-yl)thiophen-2-yl]methyl}amino)-2-(3,4-difluorobenzyl)-3,4-dihydro-2,7-naphthyridin-1(2H)-one] showed an IC50 of less than 0.1 µM. The concentration for a half-maximal effect (EC50) in assay [2] (setting [5]) was less than 1 µM.
